Measurements reported in PMC8498988, “Scaffold Hybridization Strategy Leads to the Discovery of Dopamine D3 Receptor-Selective or Multitarget Bitopic Ligands Potentially Useful for Central Nervous System Disorders” (ACS Chemical Neuroscience, 2021).

How the values were obtained:
[1] = target: T1, 5-HT2CR (Homo sapiens, UniProt P28335); experiment: 5-HT2C IP-1 formation (HEK-h5HT2C cells); details: for % stimul., 5-HT2C IP-1 formation: agonist mode, normalized to the maximal stimulation by serotonin; for functional behavior at 5-HT2CR: in words
T1 sequence (P28335 33-458): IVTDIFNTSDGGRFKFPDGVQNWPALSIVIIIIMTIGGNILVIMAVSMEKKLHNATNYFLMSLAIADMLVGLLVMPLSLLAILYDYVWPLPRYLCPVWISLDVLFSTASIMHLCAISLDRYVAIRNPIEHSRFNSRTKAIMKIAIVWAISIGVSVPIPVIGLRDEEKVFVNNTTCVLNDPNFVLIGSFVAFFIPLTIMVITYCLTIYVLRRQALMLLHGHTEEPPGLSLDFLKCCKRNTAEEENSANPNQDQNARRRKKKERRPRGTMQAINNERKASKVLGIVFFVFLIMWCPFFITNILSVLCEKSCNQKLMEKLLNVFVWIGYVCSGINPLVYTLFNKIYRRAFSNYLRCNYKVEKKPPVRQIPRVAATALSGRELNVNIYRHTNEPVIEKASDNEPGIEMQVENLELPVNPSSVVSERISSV
Procedure: HEK-h5HT2A or HEK-h5HT2C cells are used as the tissue source. The day before the experiment, cells are plated in 24-well plates at a density of 400,000 cells per well using DMEM supplemented with charcoal-stripped FetalClone. Drugs are made up in stimulation buffer supplied in the kit. Medium is removed from the well, test compounds or serotonin or antagonist or buffer is added, and the cells are incubated for 1 h. The cells are lysed for 30 min, and 50 μL of cell lysate is added to the IP-1 plates. After the addition of appropriate antibodies, the plates are incubated for 3 h, washed six times, incubated with the substrate for 20 min, and, after termination of the reaction, the plate is read on a plate reader at 450 nm with a correction at 620 nm.

[2] = target: T2, D4R (Homo sapiens, UniProt P21917); experiment: D4 adenylate cyclase/cAMP functional assay (HEK-D4.4-AC1 cells); type: cell-based; parameters: expressed in transfected cells; host or cells: HEK-D4.4-AC1 cells; details: for EC50 / % stimul., D4 adenylate cyclase: agonist mode; for EC50: inhibition of forskolin-stimulated cAMP formation; for % stimul., D4 adenylate cyclase: normalized to maximal effect of quinpirole; for functional behavior at D4R: in words
T2 sequence (P21917 1-419): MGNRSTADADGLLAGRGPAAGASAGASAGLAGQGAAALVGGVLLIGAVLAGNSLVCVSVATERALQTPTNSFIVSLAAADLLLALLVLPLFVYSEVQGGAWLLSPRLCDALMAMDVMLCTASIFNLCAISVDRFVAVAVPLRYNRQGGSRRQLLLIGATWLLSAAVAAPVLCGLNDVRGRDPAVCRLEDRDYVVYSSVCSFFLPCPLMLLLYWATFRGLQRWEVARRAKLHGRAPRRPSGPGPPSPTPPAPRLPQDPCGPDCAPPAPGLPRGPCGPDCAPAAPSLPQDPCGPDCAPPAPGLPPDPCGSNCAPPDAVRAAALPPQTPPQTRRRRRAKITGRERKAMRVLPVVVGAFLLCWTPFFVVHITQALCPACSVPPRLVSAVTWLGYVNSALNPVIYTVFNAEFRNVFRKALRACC
Procedure: HEK-D4.4-AC1 cells are grown to confluency on […]. The cells are plated at a density of 375,000 cells per well in 48-well plates in DMEM supplemented with 5% FetalClone, 5% BCS, and pen-strep. After ∼36 h, the medium is changed to DMEM supplemented with 10% charcoal-stripped FetalClone and pen-strep. The medium is removed ∼18 h later. For agonist assays, 0.8 mL of EBSS (116 mM NaCl, 22 mM glucose, 15 mM HEPES, 8.7 mM NaH2PO4, 5.4 mM KCl, 1.3 mM CaCl2, 1.2 mM MgSO4, 1 mM ascorbic acid, 0.5 mM IBMX [3-isobutyl-1-methyl-xanthine], and 2% BCS, pH 7.4 at 37 °C) is added, cells are incubated for 20 min, agonists are added, and, after a 20 min incubation, 10 μM of forskolin is added in a final volume of 1 mL. For antagonists, 0.7 mL of EBSS is added, cells are incubated for 10 min, antagonists are added, cells are incubated for 10 min, 2 nM quinpirole is added, and after a 20 min incubation, 10 μM forskolin is added in a final volume of 1 mL. For all conditions, after a 20 min incubation with forskolin, the reaction is terminated by aspiration of the buffer, and 0.1 mL of trichloroacetic acid is added. The plates are incubated for 2 h on a rotator. Adenylate cyclase activity is measured using a cyclic AMP EIA kit (Cayman). Aliquots (9 μL) of each well are diluted to 200 μL with EIA buffer from the kit, and 50 μL of dilution is added to the EIA plate. After addition of tracer and monoclonal antibody, the EIA plates are incubated for 18 h at 4 °C. The reaction is aspirated, the plates are washed with 5 × 300 μL wash buffer, and Ellman’s reagent is added. After a 2 hour incubation in the dark on a rotator, the plates are read at 410 nm. Basal cAMP is subtracted from all values. D4R agonists inhibit forskolin-stimulated cAMP formation, and maximal inhibition is defined with 1 μM quinpirole. Data normalized to percent forskolin stimulation are shown in the graph. The maximal effect is normalized to maximal effect of quinpirole in the tables. For antagonists, maximal reversal of inhibition of cAMP formation is defined with 10 μM haloperidol.

[3] = target: D3R (Homo sapiens, UniProt P35462); experiment: Radioligand competition binding at human D3R ([3H]N-methylspiperone, HEK293 membranes); parameters: expressed in transfected cells; host or cells: HEK293; details: selectivity
D3R, sequence (P35462 whole entry): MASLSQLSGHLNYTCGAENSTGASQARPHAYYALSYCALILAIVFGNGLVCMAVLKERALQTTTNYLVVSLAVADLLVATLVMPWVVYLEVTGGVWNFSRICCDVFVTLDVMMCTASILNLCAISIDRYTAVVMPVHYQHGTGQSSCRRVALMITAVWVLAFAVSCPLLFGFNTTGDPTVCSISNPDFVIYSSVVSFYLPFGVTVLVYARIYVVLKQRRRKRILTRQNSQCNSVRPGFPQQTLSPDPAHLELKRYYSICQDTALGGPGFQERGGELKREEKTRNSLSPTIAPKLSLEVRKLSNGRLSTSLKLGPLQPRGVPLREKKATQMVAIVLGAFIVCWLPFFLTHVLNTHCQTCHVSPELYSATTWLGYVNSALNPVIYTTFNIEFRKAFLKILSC

SMILES | EC50 [1] [nM] | % stimul., 5-HT2C IP-1 formation [1] [%] | functional behavior at 5-HT2CR [1] | EC50 [2] [nM] | % stimul., D4 adenylate cyclase [2] [%] | functional behavior at D4R [2] | 5-HT1A/D3 ([3]; ratio of Ki values 5-HT1AR/D3R) | 5-HT2A/D3 ([3]; ratio of Ki values 5-HT2AR/D3R) | 5-HT2C/D3 ([3]; ratio of Ki values 5-HT2CR/D3R) | D1/D3 ([3]; ratio of Ki values D1R/D3R)
O=C(NCCCCN1CCN(c2cccc(Cl)c2Cl)CC1)C1COC(c2ccccc2)(c2ccccc2)CO1 (stereo not shown) [compound 6, N-(4-(4-(2,3-Dichlorophenyl)piperazin-1-yl)butyl)-5,5-diphenyl-1,4-dioxane-2-carboxamide] | 380 ± 130 | 33 | D3R and 5-HT2CR partial agonists with high and low potency, respectively | 21.7 ± 8.4 | 76.7 | efficacious 5-HT1AR and D4R agonists with high potency |  |  |  | 
O=C(NCCCCN1CCN(c2cccc(Cl)c2Cl)CC1)C1COc2ccccc2O1 (stereo not shown) [compound 9, N-(4-(4-(2,3-Dichlorophenyl)piperazin-1-yl)butyl)-2,3-dihydrobenzo[b][1,4]dioxine-2-carboxamide] | 750 ± 280 | 37 | D3R and 5-HT2CR partial agonists with high and low potency, respectively | 15.3 ± 1.9 | 73.1 | efficacious 5-HT1AR and D4R agonists with high potency |  |  |  | 
O=C(NCCCCN1CCN(c2cccc(Cl)c2Cl)CC1)C1COCC(c2ccccc2)(c2ccccc2)O1 (stereo not shown) [compound 3, N-(4-(4-(2,3-Dichlorophenyl)piperazin-1-yl)butyl)-6,6-diphenyl-1,4-dioxane-2-carboxamide] |  |  |  |  |  |  | 121 | 108 | 269 | 185
